{"source": "patent US20070081948A1", "about": "“Dry powder composition comprising a benzodiazepine for pulmonary inhalation” (Vectura Limited, priority 2003, published 2007)", "assay": "Emitted 6.8 micron particle fraction from vortex chamber versus ratio of chamber diameter to exit port diameter", "format": "physicochemical", "conditions": "for Normalised average particle fraction <6.8 μm (%): emitted fraction divided by fraction of the loaded powder", "source_text": "The normalised average 6.8 micron particle fraction is the emitted 6.8 micron particle fraction divided by the 6.8 micron particle fraction of the powdered medicament loaded into the inhaler. The medicament used was pure Intal™ sodium cromoglycate (Fisons UK)."}
{"smiles": "O=C(O)c1cc(=O)c2c(OCC(O)COc3cccc4oc(C(=O)O)cc(=O)c34)cccc2o1", "note": "[sodium cromoglycate]", "values": [{"measurement": "Average particle fraction <6.8 μm (%)", "setting": "Ratio D/De 2.0", "result": 64.7, "unit": "%"}, {"measurement": "Normalised average particle fraction <6.8 μm (%)", "setting": "Ratio D/De 2.0", "result": 73.1, "unit": "%"}, {"measurement": "Average particle fraction <6.8 μm (%)", "setting": "Ratio D/De 3.1", "result": 70.8, "unit": "%"}, {"measurement": "Normalised average particle fraction <6.8 μm (%)", "setting": "Ratio D/De 3.1", "result": 79.9, "unit": "%"}, {"measurement": "Average particle fraction <6.8 μm (%)", "setting": "Ratio D/De 4.0", "result": 75.5, "unit": "%"}, {"measurement": "Normalised average particle fraction <6.8 μm (%)", "setting": "Ratio D/De 4.0", "result": 85.2, "unit": "%"}, {"measurement": "Average particle fraction <6.8 μm (%)", "setting": "Ratio D/De 6.0", "result": 81.0, "unit": "%"}, {"measurement": "Normalised average particle fraction <6.8 μm (%)", "setting": "Ratio D/De 6.0", "result": 91.4, "unit": "%"}, {"measurement": "Average particle fraction <6.8 μm (%)", "setting": "Ratio D/De 7.1", "result": 83.5, "unit": "%"}, {"measurement": "Normalised average particle fraction <6.8 μm (%)", "setting": "Ratio D/De 7.1", "result": 94.3, "unit": "%"}, {"measurement": "Average particle fraction <6.8 μm (%)", "setting": "Ratio D/De 8.0", "result": 83.2, "unit": "%"}, {"measurement": "Normalised average particle fraction <6.8 μm (%)", "setting": "Ratio D/De 8.0", "result": 93.9, "unit": "%"}, {"measurement": "Average particle fraction <6.8 μm (%)", "setting": "Ratio D/De 8.6", "result": 80.6, "unit": "%"}, {"measurement": "Normalised average particle fraction <6.8 μm (%)", "setting": "Ratio D/De 8.6", "result": 91.0, "unit": "%"}]}
